# Reference: patent US11400102B2, “Treatment for bacterial infections with salicylic acid analogs” (priority 2019, dated 2022)
# “Also recorded” adds a separate entry of the source. Where two headings read alike, the source gives them in different places.
# Tests used:
# yersiniabactin = test: Mutasynthesis study: incorporation of variant salicylic acids into yersiniabactin (LC-MS); format: cell-based, uropathogenic E. coli (UTI89ΔybtS)
# Procedure: FIG. 11 depicts the experimental protocol for the screening assay. […] a strain of uropathogenic E. coli (UTI89ΔybtS) that cannot produce endogenous salicylic acid but can be chemically complemented with salicylic acid in growth medium. […]+1% casamino acids (CAA) and 20 μM 2′,2′-dipyridyl (DP) were added along with a variety of variant salicylic acids (Table 1) bearing different moieties on carbons 3 to 6. The amount of Ypt in the sample was then quantified using LC-MS.
# Walking around the Figure from bottom left: -LC-MS method called neutral loss, where any molecule that loses 187 mass units that are characteristic of yersiniabactin, -different metal species of yersiniabactin can be detected in the supernatant of a UTI89 culture; these have distinct retention times by liquid chromatography; confirm that the molecules contributing to this LC peak are a variant yersiniabactin with a fluorine by the mass.
# [1] = tested on: yersiniabactin biosynthesis; test: Culture screen of salicylate analogs for yersiniabactin (Fe-Ybt) in UTI89 supernatant by LC-MS; format: cell-based, uropathogenic E. coli UTI89; details: Escherichia coli, read-out: yersiniabactin inhibition
# Excerpt: While investigating in vivo Ybt production in the mouse cystitis model, we observed that a salicylate synthase-deficient uropathogen (UTI89ΔybtS) produces Ybt at near-wild type levels (FIG. 6A). We biochemically connected this phenotype to a uropathogenic ability to scavenge low level urinary salicylate (of presumed dietary origin) (31) as a yersiniabactin biosynthetic substrate. Both human and mouse urine chemically complemented UTI89ΔybtS in this manner, showing that low micromolar salicylate accesses cytoplasmic siderophore biosynthetic enzymes. […] Active compounds could be further divided into those that inhibit the yersiniabactin biosynthetic activity and those that displace the native salicylate substrate, resulting in a variant form of yersiniabactin (vYbt) containing the modified salicylate ring (see fluorinated yersiniabactin in FIG. 6D). The latter process, termed mutasynthesis, has been described for the related pyochelin siderophore system in Pseudomonas (32).
# UTI189 cultures were grown overnight in media supplemented with M63+DP+CAA and 50 μM of a salicylic acid analog. Supernatants were then examined for ferric-Ybt and the area of the MS-peak corresponding to that complex was measured. […] In many cases, a 5-fold or greater reduction was observed (FIG. 17).
# As described in Example 10, a culture based screen of yersiniabactin biosynthetic inhibitor candidates was undertaken. The screening protocol is described in FIG. 20; E. coli were cultured in 96 well plates at 37° C. in the presence of various yersiniabactin inhibitor candidates. The yersiniabactin secretion in the media was measured using LC-MS using an internal standard (leucine encephalin). Bacterial growth, measured by optical density, was assessed for general toxicity and LC-MS quantification of enterobactin, a related but chemically and biochemically distinct, siderophore in medium at endpoint was measured for off-target activity.
# [2] = tested on: yersiniabactin production; test: Dose response of yersiniabactin production in UTI89 culture; format: cell-based, Uropathogenic E. coli strain UTI89; details: for EC50: Escherichia coli
# Procedure: Three biological triplicate experiments were completed wherein the % Ybt was measured relative to untreated controls (UTI189Δ189 in 70% ETOH). […] The experimental details describing how Ybt was quantified (using mass spectrometry) and how samples were prepared and treated are described in Chaturvedi, K S et al. Nature chemical biology. 8.8(2012):731-736.
# FIGS. 25 and 26 show the effect of 5-methyl salicylic acid on yersiniabactin production in an E. coli culture. In FIG. 25, a dose response curve of yersiniabactin synthesis in the presence of increasing concentrations of 5-methyl-salicylate is shown. Uropathogenic E. coli strain UTI89 were grown in low iron culture with the indicated concentrations of 5-methyl salicylate. Yersiniabactin content of culture supernatants was measured by LC-MS/MS relative to an internal standard. The EC50 was determined to be 0.89±0.10 μM. In FIG. 26 a representative mass spectra is depicted illustrating the presence of yersiniabactin fragments in untreated control (left panel) that are missing in media treated with 5-methyl salicylic acid (right panel).
# Uropathogenic bacteria were again grown in low iron culture in the presence of varying concentrations of salicylic acid serivatives having different methylation positions.
# [3] = tested on: yersiniabactin production; test: Yersiniabactin and intermediates (HPT, Esn) in clinical urinary E. coli isolates; format: cell-based; details: 50 μM, FIGS. 30-33
# Procedure: The following clinical urinary E. coli isolates were chosen since they each secrete yersiniabactin: rUTI2, JMUSB64(490), JMUSB40(518), JMUSB115(530), JMUSB351(544), JMUB470(557), fCAUTI/B2 (sequence type ST131: ZZ13, ZZ15, ZZ16, ZZ18, ZZ22, and non ST131:ZZ23).
# Specifically, HPT and escherichelin (Esn) were measured alongside the end product yersiniabactin. In addition, the production of enterobactin was measured as a counterscreen. In FIGS. 30-33, relative amounts of each analyte (HPT, Esn, Yrt) are depicted for each culture exposed to 50 μM of each inhibitor. A graph corresponding to reference UTI89 is reproduced in each figure (upper left).
# There was negligible effect on enterobactin biosynthesis as well as less inhibition of biosynthetic precursors to yersiniabactin: HPT and HPTT. […] In this manner, HPTT/escherichelin production by E. coli may protect human hosts.
# [4] = tested on: enterobactin production (EntE); test: Aryl acid adenylating enzyme inhibitors: enterobactin production by UTI89; format: cell-based, E. coli UTI89; details: AAAE inhibitors
# Excerpt: (§1) Restored yersiniabactin biosynthesis in a salicylate synthase deletion mutant (UTI89ΔybtS) during UTI led us to evaluate the pathway's subsequent biosynthetic enzyme—the aryl acid adenylating enzyme (AAAE) YbtE—as a drug target. UTI89ΔybtE produced no detectable yersiniabactin at 1 day, 1 week or 2 weeks following inoculation and is furthermore less virulent than wild type UTI89, as evidenced by a fewer chronically infected mice, a notable result for a non-conserved gene (FIG. 7A). We evaluated YbtE and its enterobactin pathway equivalent EntE as candidate drug targets using a series of six rationally-designed, non-hydrolyzable nucleoside AAAE inhibitors from the laboratory of Courtney Aldrich (see collaboration letter).
# [5] = tested on: yersiniabactin production (YbtE); test: Aryl acid adenylating enzyme inhibitors: yersiniabactin production by UTI89; format: cell-based, E. coli UTI89; details: AAAE inhibitors
# Excerpt: as §1
# To test whether interference with the downstream adenylating enzyme, YbtE, could also affect yersiniabactin production, a series of YbtE inhibitors were applied to cultures of UTI89 and the Fe-Ybt peak ratio measured (FIG. 19). UT189 was grown overnight in medium supplemented with M63, DP and CAA and 100 μM of the tested compounds. […] Therefore, the salicylic analogs may act to inhibit YbtE, rather than YbtS, in the biosynthetic pathway to reduce overall production of yersiniabactin.
# UPEC urinary growth = test: Urinary growth assay in the presence of Lcn2; format: cell-based, uropathogenic E. coli; details: human urine
# Excerpt: Both neutrophils and epithelial cells produce and secrete the soluble protein Lipocalin 2 (Lcn2) into the urine and bladder lumen. Lcn2 binds a wide range of […] and their ferric complexes, presumably restricting their availability to bacteria (28). We used purified Lcn2, human urine specimens, and our panel of UPEC siderophore mutants to determine whether siderophore systems counteract Lcn2's presumed bacteriostatic activity. […] We further discovered that this phenotype varies between individual urines such that urinary growth is strongly enterobactin-dependent in some (“restrictive” individuals) and less so in others (“permissive” individuals). We have related this to a distinctive urinary metabolomic biomarker profile (29) in these individuals. […]
# Restored yersiniabactin biosynthesis in a salicylate synthase deletion mutant (UTI89ΔybtS) during UTI led us to evaluate the pathway's subsequent biosynthetic enzyme—the aryl acid adenylating enzyme (AAAE) YbtE—as a drug target. […] We evaluated YbtE and its enterobactin pathway equivalent EntE as candidate drug targets using a series of six rationally-designed, non-hydrolyzable nucleoside AAAE inhibitors from the laboratory of Courtney Aldrich (see collaboration letter).
# [6] = tested on: yersiniabactin production; details: FIG. 37
# enterobactin production = details: FIG. 37
# [7] = tested on: Ybt-deficient (UTI89ΔybtS) culture; test: Copper toxicity and Ybt cytoprotection in Ybt-deficient culture; details: 10 μM cupric sulfate
# Procedure: Growth was determined and expressed as total CFU ml^−1. […] For each patient, the difference in urinary and nonurinary strain growth is reported such that a positive value indicates prefential growth by the urinary isolate. In the four patients from whom multiple coincident urinary and nonurinary strains were recovered, the mean growth difference is reported. […] NS, nonsignificant, indicating P>0.05. […] Results are shown as mean±s.d.; n=3; *P<0.05, **P<0.01 and ***P<0.001.
structure (smiles),measurement,setting,value
O=C(O)c1c(O)ccc2ccccc12 [2-hydroxy-1-naphthoic acid],incorporation into variants of yersiniabactin,yersiniabactin; listed as 2-hydroxy-1-naphoic acid,lack of incorporation
same,incorporation into variants of yersiniabactin,yersiniabactin; listed as 2-hydroxy-1-nathoic acid,not incorporated
O=C(O)c1ccc(Cl)cc1O [4-chlorosalicylic acid],inhibition at 50 µM,[1],> 90%
O=C(O)c1cc(F)ccc1O [5-fluorosalicylic acid],incorporation into variants of yersiniabactin,yersiniabactin,incorporated; also recorded: incorporation
Cc1ccc(O)c(C(=O)O)c1 [5-methylsalicylic acid],EC50,"[2]; read-out: EC50, % Ybt relative to untreated controls",~1900 nM
same,EC50,"[2]; read-out: EIC, inhibits biosynthesis in culture",~2000 nM
same,EC50,"[2]; UTI89, low iron culture, LC-MS/MS, FIG. 25, read-out: EC50, yersiniabactin content of culture supernatants",890 ± 100 nM
same,"order of yersiniabactin inhibition, most potent to least potent",[3],most potent
same,yersiniabactin expression in a variety of strains,[3],very effective
same,inhibition at 50 µM,[1],> 90%
O=C(O)c1c(O)cccc1F [6-fluorosalicylic acid],"order of yersiniabactin inhibition, most potent to least potent",[3],least potent
same,inhibition at 50 µM,[1],> 90%
Cc1cccc(O)c1C(=O)O [6-methylsalicylic acid],"yersiniabactin inhibitory activity, dose response","[2]; low iron culture, methylated salicylic acids, FIG. 27",limited activity
same,inhibition at 50 µM,[1],> 90%
Nc1ncnc2c1ncn2[C@@H]1O[C@H](COS(=O)(=O)NC(=O)c2cccc(O)c2O)[C@@H](O)[C@H]1O [DHB-AMS],enterobactin production by UTI89,[4],completely inhibiting
same,yersiniabactin production by UTI89,[5],completely inhibiting
same,phenotype in the urinary growth assay,UPEC urinary growth,mimicked an enterobactin biosynthesis mutant phenotype
Nc1ncnc2c1ncn2[C@@H]1O[C@H](COS(=O)(=O)NC(=O)c2ccccc2O)[C@@H](O)[C@H]1O [Sal-AMS],enterobactin production by UTI89,[4],completely inhibiting
same,yersiniabactin production by UTI89,[5],completely inhibiting
"COc1cc(Cc2cnc(N)nc2N)cc(OC)c1OC [TMP, trimethoprim]",yersiniabactin production,[6],markedly decrease
same,enterobactin production,enterobactin production,not
"O=S(=O)([O-])[O-].[Cu+2] [copper, cupric sulfate]",decrease in viability,[7],> 3 log CFU ml^−1
